These results are taken from patent US4497742A, “Isomerization of β-lactam compounds” (Takeda Chemical Industries, Ltd., priority 1981, dated 1985).

Where a name gives a salt, the structure may show the parent alone. Read-outs that look alike come from different tables or passages of the source.

The test system of assay [1] is beta-Lactamase. Description: beta-Lactamase-inhibitory activity, producing strain Escherichia coli TN 713. Type of assay: biochemical.
The target of assay [2] is T1, beta-Lactamase (Staphylococcus aureus, UniProt P00807).
T1 construct: endogenous in cells; host or cells: Staphylococcus aureus 1840 (producing strain)
Description: beta-Lactamase-inhibitory activity, producing strain Staphylococcus aureus 1840. Type of assay: biochemical. The conditions noted are these: read-out: beta-Lactamase-inhibitory activity [1D50] (converted).

Assay [3] addresses beta-Lactamase. Description: beta-Lactamase-inhibitory activity, producing strain Proteus vulgaris GN 4413. The format is biochemical.
Assay [4] has as its target T2, beta-Lactamase (Enterobacter cloacae, UniProt P05364).
T2 construct: endogenous in cells; host or cells: Enterobacter cloacae TN 1282 (producing strain)
The assay is described as follows: beta-Lactamase-inhibitory activity, producing strain Enterobacter cloacae TN 1282. The conditions noted are these: read-out: beta-Lactamase-inhibitory activity [1D50] (converted). Type of assay: biochemical.

Assay [5] relates to Staphylococcus aureus FDA 209P. The assay is described as follows: Antimicrobial spectrum (MIC), Staphylococcus aureus FDA 209P. The format is cell-based. The following applies: FDA209P.
Assay [6] deals with Escherichia coli NIHJ J2C. Description: Antimicrobial spectrum (MIC), Escherichia coli NIHJ J2C. Type of assay: cell-based. The following applies: NIHJJ2C.
Assay [7] deals with Salmonella typhimurium IFO 12529. The assay is described as follows: Antimicrobial spectrum (MIC), Salmonella typhimurium IFO 12529. The format is cell-based. The conditions noted are these: Salmonella enterica.
Assay [8] deals with Proteus vulgaris IFO 3988. Description: Antimicrobial spectrum (MIC), Proteus vulgaris IFO 3988. Type of assay: cell-based. The conditions noted are these: IFO3988.
[9] abbreviates: Proteus vulgaris IFO 3988, read-out: MIC.

T1 sequence (P00807 25-281): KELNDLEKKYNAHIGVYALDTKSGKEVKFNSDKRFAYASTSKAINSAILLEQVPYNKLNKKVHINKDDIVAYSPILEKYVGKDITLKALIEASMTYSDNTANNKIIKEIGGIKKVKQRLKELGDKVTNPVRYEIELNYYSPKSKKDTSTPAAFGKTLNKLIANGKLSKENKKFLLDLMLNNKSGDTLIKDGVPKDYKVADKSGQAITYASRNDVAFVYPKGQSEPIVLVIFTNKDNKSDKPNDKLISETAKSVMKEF
T2 sequence (P05364 21-381): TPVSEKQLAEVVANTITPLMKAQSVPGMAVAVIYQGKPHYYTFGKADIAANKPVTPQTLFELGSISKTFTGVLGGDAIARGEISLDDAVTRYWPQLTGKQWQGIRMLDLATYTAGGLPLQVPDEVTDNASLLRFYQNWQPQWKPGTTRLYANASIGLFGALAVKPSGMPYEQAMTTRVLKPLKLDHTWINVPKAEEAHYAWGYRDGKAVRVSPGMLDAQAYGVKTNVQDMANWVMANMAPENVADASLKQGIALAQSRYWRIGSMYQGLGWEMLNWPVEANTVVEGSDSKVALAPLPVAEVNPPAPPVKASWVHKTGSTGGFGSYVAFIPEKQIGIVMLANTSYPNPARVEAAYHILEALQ

As to `CC(=O)N/C=C\[S@@+]([O-])C1=C(C(=O)[O-])N2C(=O)[C@@H](C(C)(C)O)[C@H]2C1.[Na+]` [Ia, sodium [5R, 6R]-3-[(Z)-2-acetamidoethenyl-(R)-sulfinyl]-6-[1-hydroxy-1-methylethyl]-7-oxo-1-azabicyclo(3,2,0)-hept-2-ene-2-carboxylate], the “beta-Lactamase-inhibitory activity [1D50]” value in the assay with beta-Lactamase [1] stood at 0.0016 µg/mL; at beta-Lactamase [3], 0.00105 µg/mL. Besides, the IC50 was 151 nM at beta-Lactamase [2] and 13.7 nM on beta-Lactamase [4]. In addition, it took 0.39 µg/mL to inhibit growth in assay [5] (MIC).

Turning to `CC(=O)N/C=C\[S@@+]([O-])C1=C(C(=O)O)N2C(=O)[C@@H](C(C)(C)OS(=O)(=O)O)[C@H]2C1` [Ib, [5R, 6R]-3-[(Z)-2-acetamidoethenyl-(R)-sulfinyl]-6-(1-hydroxysulfonyloxy-1-methylethyl)-7-oxo-1-azabicyclo (3,2,0)-hept-2-ene-2-carboxylic acid disodium salt], the “beta-Lactamase-inhibitory activity [1D50]” value in the assay on beta-Lactamase [1] stood at 0.0001175 µg/mL; on beta-Lactamase [3], 0.00055 µg/mL. Moreover, the IC50 was 568 nM on beta-Lactamase [2] and 36 nM on beta-Lactamase [4]. In addition, the MIC – broadly, the smallest concentration in the dilution series that meets the test's criterion for growth inhibition – in assay [6] was determined as 20 µg/mL; in assay [7], 20 µg/mL; in assay [8] (setting [9]) it was 40 µg/mL; in assay [5], 2.5 µg/mL.

For the compound `CC(=O)N/C=C\SC1=C(C(=O)[O-])N2C(=O)[C@@H](C(C)(C)O)[C@H]2C1.[Na+]` [Ig, sodium [5R, 6R]-3-[(Z)-2-acetamidoethenyl-thio]-6-[1-hydroxy-1-methyl-ethyl]-7-oxo-1-azabicyclo(3,2,0)-hept-2-ene-2-carboxylate], the “beta-Lactamase-inhibitory activity [1D50]” value came out at 0.010 µg/mL in the assay on beta-Lactamase [1] and 0.017 µg/mL at beta-Lactamase [3]. The MIC in assay [6] was determined as 2.5 µg/mL; in assay [7], 2.5 µg/mL; in assay [8] (Proteus vulgaris) it was 5 µg/mL; in assay [5], 0.625 µg/mL. Moreover, the IC50 at beta-Lactamase [4] was 86.1 nM.

With `CC(=O)N/C=C\SC1=C(C(=O)O)N2C(=O)[C@@H](C(C)(C)OS(=O)(=O)O)[C@H]2C1` [Ih, [5R, 6R]-3-[(Z)-2-acetamidoethenyl-thio]-6-[1-hydroxysulfonyloxy-1-methyl-ethyl]-7-oxo-1-azabicyclo(3,2,0)-hept-2-ene-2-carboxylic acid disodium salt], the figures for the “beta-Lactamase-inhibitory activity [1D50]” value with beta-Lactamase [1] and at beta-Lactamase [3] were 0.017 µg/mL and 0.0038 µg/mL, respectively. Further, the results for the IC50 at beta-Lactamase [2] and at beta-Lactamase [4] were 2460 nM and 7.87 nM, respectively. For the same compound, the minimal inhibitory concentration (MIC) in assay [6] is 40 µg/mL; in assay [7] it was 20 µg/mL; in assay [8] (setting [9]) it was < 40 µg/mL; in assay [5] it was 2.5 µg/mL.
